The target of the assay is T1, vanilloid receptor (Rattus norvegicus, UniProt O35433).
T1 construct: DRG nerve cells from the primary culture of 2 days were equilibrated; endogenous in cells; host or cells: primary culture of dorsal root ganglion neurons from neonatal SD rats
T1 sequence (O35433 whole entry): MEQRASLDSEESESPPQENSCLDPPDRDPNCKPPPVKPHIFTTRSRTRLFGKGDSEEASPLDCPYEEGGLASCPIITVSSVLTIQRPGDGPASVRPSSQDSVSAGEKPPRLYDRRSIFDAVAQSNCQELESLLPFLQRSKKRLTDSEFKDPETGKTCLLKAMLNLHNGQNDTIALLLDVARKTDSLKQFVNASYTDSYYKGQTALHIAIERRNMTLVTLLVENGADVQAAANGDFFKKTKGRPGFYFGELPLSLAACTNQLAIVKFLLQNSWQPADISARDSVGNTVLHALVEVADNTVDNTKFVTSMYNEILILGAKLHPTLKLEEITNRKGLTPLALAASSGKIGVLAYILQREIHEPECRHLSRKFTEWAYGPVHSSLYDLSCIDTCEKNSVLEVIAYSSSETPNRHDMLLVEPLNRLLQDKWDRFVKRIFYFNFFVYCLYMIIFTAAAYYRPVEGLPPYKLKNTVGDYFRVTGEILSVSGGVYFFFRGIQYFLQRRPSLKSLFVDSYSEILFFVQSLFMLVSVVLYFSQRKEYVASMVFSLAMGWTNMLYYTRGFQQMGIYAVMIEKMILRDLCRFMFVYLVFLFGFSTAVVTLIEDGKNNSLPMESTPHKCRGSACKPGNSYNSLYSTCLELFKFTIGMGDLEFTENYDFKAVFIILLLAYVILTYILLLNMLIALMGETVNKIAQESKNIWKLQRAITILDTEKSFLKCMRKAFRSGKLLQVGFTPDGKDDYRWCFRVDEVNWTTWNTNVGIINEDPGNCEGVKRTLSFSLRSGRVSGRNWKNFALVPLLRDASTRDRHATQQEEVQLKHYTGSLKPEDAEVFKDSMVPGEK
Briefly: 45Ca influx test in cultured neonatal rat DRG neurons, inhibition of capsaicin response. It is filed as cell-based. The conditions noted are these: neonatal rat DRG neurons, capsaicin 0.5 μM, 45Ca influx; read-out: Antagonist Calcium Uptake Test (IC50). The gist of the method: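 Neonatal SD rat DRG neurons, cultured 2 days with NGF (200 ng/ml) and Ara-C, were washed in HEPES (10 mM, pH 7.4)-buffered Ca/Mg-free HBSS. Test compound was added with capsaicin (final 0.5 μM) and 45Ca (10 μCi/ml) for 10 min at room temperature; 45Ca uptake counted by scintillation after SDS elution.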
Regarding `CC(C)Nc1nc(C(F)(F)F)ccc1/C=C/C(=O)N[C@H](C)c1cc(F)c(NS(C)(=O)=O)c(F)c1` [Example 227, (R)—N-[1-(3,5-Difluoro-4-methanesulfonylamino-phenyl)-ethyl]-3-(2-isopropylamino-6-trifluoromethyl-pyridin-3-yl)-acrylamide], the IC50 was found to be 0.019 µM.
With `CCCCc1nc(C(F)(F)F)ccc1/C=C/C(=O)N[C@H](C)c1cc(F)c(NS(C)(=O)=O)c(F)c1` [Example 228, (R)-3-(2-Butyl-6-trifluoromethyl-pyridin-3-yl)-N-[1-(3,5-difluoro-4-methanesulfonylamino-phenyl)-ethyl]-acrylamide] the figure was 0.012 µM; with `CCCNc1nc(C(F)(F)F)ccc1/C=C/C(=O)N[C@H](C)c1cc(F)c(NS(C)(=O)=O)c(F)c1` [Example 229, (R)—N-[1-(3,5-Difluoro-4-methanesulfonylamino-phenyl)-ethyl]-3-(2-propylamino-6-trifluoromethyl-pyridin-3-yl)-acrylamide], 0.015 µM; with `C#Cc1cc(CNC(=O)/C=C/c2ccc(C(F)(F)F)nc2C(C)C)cc(F)c1NS(C)(=O)=O` [Example 231, N-(3-Ethynyl-5-fluoro-4-methanesulfonylamino-benzyl)-3-(2-isopropyl-6-trifluoromethyl-pyridin-3-yl)-acrylamide], 0.076 µM.
Turning to `CC(C)c1nc(C(F)(F)F)ccc1/C=C/C(=O)NCc1cc(F)c(NS(C)(=O)=O)c(F)c1` [Example 232, N-(3,5-Difluoro-4-methanesulfonylamino-benzyl)-3-(2-isopropyl-6-trifluoromethyl-pyridin-3-yl)-acrylamide], the IC50 turned out to be 0.19 µM.
Regarding `Cc1cc(CNC(=O)/C=C/c2ccc(C(F)(F)F)nc2C(C)C)ccc1NS(C)(=O)=O` [Example 233, N-(4-methanesulfonylamino-3-methyl-benzyl)-3-(2-isopropyl-6-trifluoromethyl-pyridin-3-yl)-acrylamide], the concentration for half-maximal inhibition (IC50) came to 0.08 µM.
Regarding `CC(C)c1nc(C(F)(F)F)ccc1/C=C/C(=O)N[C@H](C)c1ccc(NS(C)(=O)=O)c(F)c1` [Example 234, (R)—N-[1-(3-Fluoro-4-methanesulfonylamino-phenyl)-ethyl]-3-(2-isopropyl-6-trifluoromethyl-pyridin-3-yl)-acrylamide], the IC50 was 0.041 µM.
On to `CCC(C)c1nc(C(F)(F)F)ccc1/C=C/C(=O)NCc1cc(F)c(NS(C)(=O)=O)c(F)c1` (stereo not drawn) [Example 235, N-(3,5-Difluoro-4-methanesulfonylamino-benzyl)-3-(2-sec-butyl-6-trifluoromethyl-pyridin-3-yl)-acrylamide], for which the concentration for half-maximal inhibition (IC50) came to 0.19 µM.
Take `C[C@@H](NC(=O)/C=C/c1ccc(C(F)(F)F)nc1CCc1ccccc1)c1cc(F)c(NS(C)(=O)=O)c(F)c1` [Example 236, (R)—N-[1-(3,5-Difluoro-4-methanesulfonylamino-phenyl)-ethyl]-3-(2-phenethyl-6-trifluoromethyl-pyridin-3-yl)-acrylamide]: the IC50 came to 0.049 µM.
As to `C[C@@H](NC(=O)/C=C/c1ccc(C(F)(F)F)nc1CCc1ccccc1)c1ccc(NS(C)(=O)=O)c(F)c1` [Example 237, (R)—N-[1-(3-Fluoro-4-methanesulfonylamino-phenyl)-ethyl]-3-(2-phenethyl-6-trifluoromethyl-pyridin-3-yl)-acrylamide], the IC50 is 0.096 µM.
Next, `CCCCNc1nc(C(F)(F)F)ccc1/C=C/C(=O)N[C@H](C)c1cc(F)c(NS(C)(=O)=O)c(F)c1` [Example 238, (R)-3-(2-Butylamino-6-trifluoromethyl-pyridin-3-yl)-N-[(1R)-(3,5-difluoro-4-methanesulfonylamino-phenyl)-ethyl]-acrylamide]: 0.045 µM; `C[C@@H](NC(=O)/C=C/c1ccc(C(F)(F)F)nc1N1CCCCC1)c1cc(F)c(NS(C)(=O)=O)c(F)c1` [Example 239, (R)—N-[1-(3,5-Difluoro-4-methanesulfonylamino-phenyl)-ethyl]-3-(2-piperid-1-yl-6-trifluoromethyl-pyridin-3-yl)-acrylamide]: 0.12 µM.

By IC50 is commonly meant the point on the concentration scale where inhibition reaches its midpoint.

For the origin of these results see patent US7858621B2 (Amorepacific Corporation, priority 2006, dated 2010).
